≈ marks a conversion by molar mass, not a printed value. Non-standard residues stand in square brackets, D forms with d. Residues, ends and D or L forms follow the SMILES beside them. *: point of attachment. Tyr(3-Br) = N[C@@H](Cc1ccc(O)c(Br)c1)C(=O)O; Boc = CC(C)(C)OC(=O)*
What was measured:
[1] = Cytotoxic activity, standard tetrazolium (MTT) assay on HaCaT cells; type: cell-based; conditions: human, HaCaT keratinocyte cells, 24 h incubation with compound, 1-200 µg/mL
Procedure: (§1) Cytotoxic properties of pure compounds were determined with a standard tetrazolium assay. B16 (6000 cells/well) and HaCaT (10,000 cells/well) cells were seeded in RPMI 1640 medium with 5% fetal calf serum (FCS) and antibiotic at day 0 in well-plate. Incubation was performed at 37 °C in an atmosphere of 5% CO2. After 24 h of incubation, compounds were added at different concentrations (1, 10, 50, 100, and 200 µg/mL), and the plate was incubated 24 h more (37 °C, 5% CO2). Cell growth and viability were then measured at 540 nm, using a MTT (3-[4,5-dimethylthiazol-2-yl]-2,5-diphenyltetrazolium bromide) assay. Each experiment was repeated at least three times.

[2] = Cytotoxic activity, standard tetrazolium (MTT) assay on B16 cells; type: cell-based, murine; conditions: mouse, B16 melanoma cells, 24 h incubation with compound, 1-200 µg/mL
Procedure: as §1

SMILES: C[S+]([O-])CC[C@@H]1NC(=O)[C@@H]2CCCN2C1=O (stereo partly drawn) [Compound 1, cyclo (L-Pro-L-OMet)]
- IC50 at 24 h [1]: > 200 µg/mL
- IC50 at 24 h [2]: > 200 µg/mL

SMILES: O=C1N[C@@H](Cc2ccc(O)cc2)C(=O)N2CCC[C@@H]12 [Compound 2, cyclo (L-Pro-L-Tyr)]
- IC50 at 24 h [1]: > 200 µg/mL
- IC50 at 24 h [2]: > 200 µg/mL

SMILES: O=C1N[C@@H](Cc2ccc(O)cc2)C(=O)N2CCC[C@H]12 [Compound 3, cyclo (D-Pro-L-Tyr)]
- IC50 at 24 h [1]: > 200 µg/mL
- IC50 at 24 h [2]: > 200 µg/mL

SMILES: CC(C)[C@@H]1NC(=O)[C@@H]2CCCN2C1=O [Compound 4, cyclo (L-Pro-L-Val)]
- IC50 at 24 h [1]: > 200 µg/mL
- IC50 at 24 h [2]: > 200 µg/mL

SMILES: CC(C)C[C@@H]1NC(=O)[C@@H]2CCCN2C1=O [Compound 5, cyclo (L-Pro-L-Leu)]
- IC50 at 24 h [1]: > 200 µg/mL
- IC50 at 24 h [2]: > 200 µg/mL

SMILES: O=C1N[C@@H](Cc2ccc(O)c(Br)c2)C(=O)N2CCC[C@H]12 [Compound 6, cyclo (D-Pro-L-Br-Tyr)]
- IC50 at 24 h [1]: > 200 µg/mL
- IC50 at 24 h [2]: > 200 µg/mL

SMILES: O=C1N[C@@H](Cc2ccc(O)c(Br)c2)C(=O)N2CCC[C@@H]12 [Compound 7, cyclo (L-Pro-L-Br-Tyr)]
- IC50 at 24 h [1]: > 200 µg/mL
- IC50 at 24 h [2]: > 200 µg/mL

SMILES: O=Cc1c[nH]c2ccccc12 [Compound 8, indole-carboxaldehyde]
- IC50 at 24 h [1]: 79 ± 6 µg/mL (≈ 544 µM)
- IC50 at 24 h [2]: 72 ± 6 µg/mL (≈ 496 µM)

SMILES: COC(=O)[C@H]1CCCN1C(=O)[C@H](Cc1ccc(O)c(Br)c1)NC(=O)OC(C)(C)C [Compound 13a, Methyl ((S)-3-(3-bromo-4-hydroxyphenyl)-2-((tert-butoxycarbonyl)amino)propanoyl)-D-prolinate] (Boc-[Tyr(3-Br)]-[dP]-OMe)
- IC50 at 24 h [1]: > 200 µg/mL
- IC50 at 24 h [2]: > 200 µg/mL

SMILES: COC(=O)[C@@H]1CCCN1C(=O)[C@H](Cc1ccc(O)c(Br)c1)NC(=O)OC(C)(C)C [Compound 13b, Methyl ((S)-3-(3-bromo-4-hydroxyphenyl)-2-((tert-butoxycarbonyl)amino)propanoyl)-L-prolinate] (Boc-[Tyr(3-Br)]-Pro-OMe)
- IC50 at 24 h [1]: 7 ± 2.5 µg/mL (≈ 14.9 µM)
- IC50 at 24 h [2]: 18 ± 5 µg/mL (≈ 38.2 µM)
